Drawing on patent publication US20240059691A1 (KALVISTA PHARMACEUTICALS LIMITED, priority 2020, published 2024), this text covers IC50 for 19 molecules.

Holding throughout (type): biochemical
One assay concerns the target Thrombin (Homo sapiens (Human), UniProt P00734). Description: Determination of related protease inhibition: Thrombin (fluorogenic substrate at Km). Particulars: 25° C. The method, then:
(§1) Determination of Related Protease Inhibition
(§2) In vitro inhibition of related proteases was determined using an ([…] assay based on standard literature methods (see e.g. Shori et al., Biochem. Pharmacol., 1992, 43, 1209; Bouckaert et al., European Journal of Medicinal Chemistry 110 (2016) 181). Human serine protease enzymes Plasma Kallikrein, KLK1, FXa, Plasmin, Thrombin and Trypsin were assayed for enzymatic activity using an appropriate fluorogenic substrate at Km concentration, FXIa at fixed substrate concentration of 100 μM, and various concentrations of the test compound. Protease activity was measured by monitoring the accumulation of liberated fluorescence from the substrate over […]. The linear rate of fluorescence increase per minute was expressed as percentage (%) activity. IC50 values were calculated as the concentration of inhibitor giving 50% inhibition of the uninhibited enzyme activity (100%).

The next assay concerns the target Human Factor XIIa (Homo sapiens (Human), UniProt P00748). Briefly: Determination of FXIIa inhibition (fluorogenic substrate H-DPro-Phe-Arg-AFC, IC50 assay). Conditions: substrate H-DPro-Phe-Arg-AFC at Km, 25° C.; class scale A-G. Summed up:
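Human FXIIa incubated at 25° C with fluorogenic substrate H-DPro-Phe-Arg-AFC at its Km concentration and varying compound concentrations. Fluorescence release monitored over 5 min at 25° C; linear rate expressed as % of uninhibited activity to derive IC50.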

A further assay has as its target KLK1 (Homo sapiens (Human), UniProt P06870). Briefly: Determination of related protease inhibition: KLK1 (fluorogenic substrate at Km). Particulars: 25° C. The method, then:
as §1, §2

The target in another assay is FXa (Homo sapiens (Human), UniProt P00742). Description: Determination of related protease inhibition: FXa (fluorogenic substrate at Km). Particulars: 25° C. The method, then:
as §1, §2

For another assay, the target named is Plasma Kallikrein (Homo sapiens (Human), UniProt P03952). Description: Determination of related protease inhibition: Plasma Kallikrein (fluorogenic substrate at Km). Particulars: 25° C., read-out: IC50 (human PKal). Summed up:
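Human enzyme incubated with test compound over a concentration range and a fluorogenic substrate at its Km concentration. Liberated fluorescence monitored over 5 min at 25 °C; linear rate per minute expressed as % of uninhibited activity, and IC50 taken as the concentration giving 50% inhibition.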

Chain of KLK1 (P06870 25-262): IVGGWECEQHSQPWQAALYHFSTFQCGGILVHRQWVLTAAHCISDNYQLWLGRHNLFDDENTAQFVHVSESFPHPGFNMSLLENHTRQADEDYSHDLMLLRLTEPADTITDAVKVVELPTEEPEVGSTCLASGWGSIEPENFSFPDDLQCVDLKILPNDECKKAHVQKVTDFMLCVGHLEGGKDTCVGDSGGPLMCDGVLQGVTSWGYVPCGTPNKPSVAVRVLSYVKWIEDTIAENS
Chain of Plasma Kallikrein (P03952 391-638): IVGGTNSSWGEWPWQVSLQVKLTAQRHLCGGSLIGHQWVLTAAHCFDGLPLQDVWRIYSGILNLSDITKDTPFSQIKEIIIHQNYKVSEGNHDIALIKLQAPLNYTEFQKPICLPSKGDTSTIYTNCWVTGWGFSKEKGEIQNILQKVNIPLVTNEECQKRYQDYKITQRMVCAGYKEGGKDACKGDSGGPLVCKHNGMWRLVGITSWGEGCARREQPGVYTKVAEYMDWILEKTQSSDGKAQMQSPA
Chain of Plasma Kallikrein (P03952 20-390 partner): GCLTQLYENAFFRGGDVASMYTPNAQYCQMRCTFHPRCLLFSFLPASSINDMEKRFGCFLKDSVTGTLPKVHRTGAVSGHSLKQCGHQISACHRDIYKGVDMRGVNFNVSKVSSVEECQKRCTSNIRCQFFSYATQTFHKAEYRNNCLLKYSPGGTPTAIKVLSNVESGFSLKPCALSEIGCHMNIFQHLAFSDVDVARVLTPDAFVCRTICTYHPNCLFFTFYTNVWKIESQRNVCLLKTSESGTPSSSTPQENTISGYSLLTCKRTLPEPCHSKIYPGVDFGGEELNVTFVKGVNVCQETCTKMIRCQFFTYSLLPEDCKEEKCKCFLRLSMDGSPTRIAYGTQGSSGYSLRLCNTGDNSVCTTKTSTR
Chain of FXa (P00742 235-488): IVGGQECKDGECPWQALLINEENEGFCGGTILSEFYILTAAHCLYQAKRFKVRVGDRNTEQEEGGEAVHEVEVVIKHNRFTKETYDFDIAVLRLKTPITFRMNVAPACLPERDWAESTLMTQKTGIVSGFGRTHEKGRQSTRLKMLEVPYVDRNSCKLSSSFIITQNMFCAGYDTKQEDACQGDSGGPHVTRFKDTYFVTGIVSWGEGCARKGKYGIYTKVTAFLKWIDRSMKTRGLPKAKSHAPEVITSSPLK
Chain of FXa (P00742 41-179 partner): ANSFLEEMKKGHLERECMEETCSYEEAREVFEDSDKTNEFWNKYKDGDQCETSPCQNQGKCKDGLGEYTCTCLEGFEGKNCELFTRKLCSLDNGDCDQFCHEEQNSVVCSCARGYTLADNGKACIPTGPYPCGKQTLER
Chain of Human Factor XIIa (P00748 373-615): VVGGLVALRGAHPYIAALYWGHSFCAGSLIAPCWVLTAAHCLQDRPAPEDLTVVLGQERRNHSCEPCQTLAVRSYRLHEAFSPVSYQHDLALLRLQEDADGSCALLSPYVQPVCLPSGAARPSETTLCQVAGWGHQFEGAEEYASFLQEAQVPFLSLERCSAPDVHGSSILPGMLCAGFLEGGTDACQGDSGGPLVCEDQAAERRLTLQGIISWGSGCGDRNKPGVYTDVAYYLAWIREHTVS

As to `CN1CCC(CNc2ccc(CNc3ccc4cnccc4c3F)cn2)CC1` [Example 1224, 5-fluoro-N-((6-(((1-methylpiperidin-4-yl)methyl)amino)pyridin-3-yl)methyl)isoquinolin-6-amine], the IC50 (as a rule, the concentration at which inhibition is half-maximal) against Thrombin is greater than 100 µM; at Human Factor XIIa, 3 to 10 µM; against KLK1 it was greater than 40 µM; at FXa, greater than 40 µM; on Plasma Kallikrein, greater than 40 µM.

On to `Nc1nccc2c(NCc3ccc(CCN4CCOCC4)cc3F)cccc12` [Example 2183, N5-[[2-fluoro-4-(2-morpholinoethyl)phenyl]methyl]isoquinoline-1,5-diamine], for which the concentration for half-maximal inhibition (IC50) on Thrombin was greater than 40 µM; at Human Factor XIIa, 0.3 to 1 µM; at KLK1 it was 10 to 40 µM; at FXa, greater than 40 µM; on Plasma Kallikrein, greater than 40 µM.

Take `Nc1nccc2c(NCc3ccc(N4CCn5c(nnc5C(F)(F)F)C4)nc3C(F)(F)F)cccc12` [Example 1298, N5-((2-(trifluoromethyl)-6-(3-(trifluoromethyl)-5,6-dihydro-[1,2,4]triazolo[4,3-a]pyrazin-7(8H)-yl)pyridin-3-yl)methyl)isoquinoline-1,5-diamine]: the half-inhibitory concentration (IC50) at Human Factor XIIa was 1 to 3 µM; against KLK1, 10 to 40 µM; at FXa it was greater than 40 µM; at Plasma Kallikrein it was greater than 40 µM.

Consider `CN1[C@@H]2COC[C@H]1CC(OCc1ccc(CNc3cccc4c(N)nccc34)c(F)c1)C2` (stereo partly drawn) [Example 2254, N5-(2-fluoro-4-((((1R,5S)-9-methyl-3-oxa-9-azabicyclo[3.3.1]nonan-7-yl)oxy)methyl)benzyl)isoquinoline-1,5-diamine], for which the half-inhibitory concentration (IC50) was greater than 40 µM against Thrombin; 0.1 to 0.3 µM against Human Factor XIIa; 10 to 40 µM against KLK1; 10 to 40 µM at FXa; greater than 40 µM at Plasma Kallikrein.

For `Cc1cc(N2CCn3c(nnc3C(F)(F)F)C2)nc(C)c1CNc1cccc2c(N)nccc12` [Example 9006, N5-((2,4-dimethyl-6-(3-(trifluoromethyl)-5,6-dihydro-[1,2,4]triazolo[4,3-a]pyrazin-7(8H)-yl)pyridin-3-yl)methyl)isoquinoline-1,5-diamine], the IC50 was 0.1 to 0.3 µM on Human Factor XIIa, greater than 40 µM on KLK1, greater than 40 µM against FXa and greater than 40 µM on Plasma Kallikrein.

Take `Nc1nccc2c(NCc3cnc(N4CCn5c(nnc5C(F)(F)F)C4)cc3C(F)(F)F)cccc12` [Example 1301, N5-((4-(trifluoromethyl)-6-(3-(trifluoromethyl)-5,6-dihydro-[1,2,4]triazolo[4,3-a]pyrazin-7(8H)-yl)pyridin-3-yl)methyl)isoquinoline-1,5-diamine]: the IC50 at Human Factor XIIa is 0.1 to 0.3 µM; against KLK1, 3 to 10 µM; on FXa it was greater than 40 µM; on Plasma Kallikrein it was greater than 40 µM.

For the molecule `CC1CN(c2ccc(CNc3cccc4c(N)nccc34)cn2)Cc2nnc(C(F)(F)F)n21` (single isomer, unassigned) [Example 1296, (R*)-N5-((6-(5-methyl-3-(trifluoromethyl)-5,6-dihydro-[1,2,4]triazolo[4,3-a]pyrazin-7(8H)-yl)468yridine-3-yl)methyl)isoquinoline-1,5-diamine], the half-maximal inhibitory concentration (IC50) on Human Factor XIIa was 1 to 3 µM; at KLK1 it was 3 to 10 µM; at FXa, greater than 40 µM; at Plasma Kallikrein it was 10 to 40 µM.

As to `CN1CCC(COc2cc(CNc3ccc4c(N)nccc4c3)cc(C(F)(F)F)n2)CC1` [Example 4265, N6-((2-((1-methylpiperidin-4-yl)methoxy)-6-(trifluoromethyl)pyridin-4-yl)methyl)isoquinoline-1,6-diamine], the IC50 against Thrombin was in the range of 0.3 to 1 µM; on Human Factor XIIa it was 0.1 to 0.3 µM; at KLK1, 0.3 to 1 µM; against FXa it was 1 to 3 µM.

Consider `CC1CN(c2ccc(CNc3cccc4c(N)nccc34)cn2)Cc2nnc(C(F)(F)F)n21` (single isomer, unassigned) [Example 1297, (S*)-N5-((6-(5-methyl-3-(trifluoromethyl)-5,6-dihydro-[1,2,4]triazolo[4,3-a]pyrazin-7(8H)-yl)pyridin-3-yl)methyl)isoquinoline-1,5-diamine], for which the IC50 on Human Factor XIIa was 1 to 3 µM; against KLK1, 1 to 3 µM; against FXa, greater than 40 µM; on Plasma Kallikrein, greater than 40 µM.

`Nc1nccc2c(NCc3ccc(N4CCn5c(nnc5C(F)(F)F)C4)cn3)cccc12` [Example 9001, N5-((5-(3-(trifluoromethyl)-5,6-dihydro-[1,2,4]triazolo[4,3-a]pyrazin-7(8H)-yl)pyridin-2-yl)methyl)isoquinoline-1,5-diamine]: the IC50 against Human Factor XIIa was 0.1 to 0.3 µM; on KLK1 it was 3 to 10 µM; on FXa, greater than 40 µM; on Plasma Kallikrein, greater than 40 µM.

Take `Cc1nc(N2CCn3c(nnc3C(F)(F)F)C2)ccc1CNc1cccc2c(N)nccc12` [Example 1284, N5-((2-methyl-6-(3-(trifluoromethyl)-5,6-dihydro-[1,2,4]triazolo[4,3-a]pyrazin-7(8H)-yl)pyridin-3-yl)methyl)isoquinoline-1,5-diamine]: the concentration for half-maximal inhibition (IC50) on Human Factor XIIa is 0.3 to 1 µM; at KLK1, 3 to 10 µM; against FXa, greater than 40 µM.

As for `Nc1nccc2c(N3CCCC3c3ccc(N4CCn5c(nnc5C(F)(F)F)C4)nc3)cccc12` (single isomer, unassigned) [Example 10003, (S*)-5-(2-(6-(3-(trifluoromethyl)-5,6-dihydro-[1,2,4]triazolo[4,3-a]pyrazin-7(8H)-yl)pyridin-3-yl)pyrrolidin-1-yl)isoquinolin-1-amine], the IC50 against Human Factor XIIa is 3 to 10 µM; on KLK1 it was greater than 40 µM; against FXa, greater than 40 µM.

`CC1c2nnc(C(F)(F)F)n2CCN1c1ccc(CNc2cccc3c(N)nccc23)cn1` (stereo not drawn) [Example 1285, N5-((6-(8-methyl-3-(trifluoromethyl)-5,6-dihydro-[1,2,4]triazolo[4,3-a]pyrazin-7(8H)-yl)pyridin-3-yl)methyl)isoquinoline-1,5-diamine]: the IC50 is 0.3 to 1 µM against Human Factor XIIa, 3 to 10 µM against KLK1 and greater than 40 µM against FXa.

On to `CC1c2nnc(C(F)(F)F)n2CCN1c1ccc(CNc2cccc3c(N)nccc23)cn1` (single isomer, unassigned) [Example 1294, (R*)-N5-((6-(8-methyl-3-(trifluoromethyl)-5,6-dihydro-[1,2,4]triazolo[4,3-a]pyrazin-7(8H)-yl)pyridin-3-yl)methyl)isoquinoline-1,5-diamine], for which the IC50 was 10 to 40 µM on Human Factor XIIa, 3 to 10 µM against KLK1, greater than 40 µM on FXa and greater than 40 µM on Plasma Kallikrein.

As for `CC1c2nnc(C(F)(F)F)n2CCN1c1ccc(CNc2cccc3c(N)nccc23)cn1` (single isomer, unassigned) [Example 1295, (S*)-N5-((6-(8-methyl-3-(trifluoromethyl)-5,6-dihydro-[1,2,4]triazolo[4,3-a]pyrazin-7(8H)-yl)pyridin-3-yl)methyl)isoquinoline-1,5-diamine], the IC50 is 0.01 to 0.1 µM against Human Factor XIIa, 3 to 10 µM at KLK1, greater than 40 µM against FXa and 10 to 40 µM on Plasma Kallikrein.

In the case of `Nc1nccc2c(NCc3cnc(N4CCn5c(nnc5C(F)(F)F)C4)cc3Cl)cccc12` [Example 1299, N5-((4-Chloro-6-(3-(trifluoromethyl)-5,6-dihydro-[1,2,4]triazolo[4,3-a]pyrazin-7(8H)-yl)pyridin-3-yl)methyl)isoquinoline-1,5-diamine], the half-maximal inhibitory concentration (IC50) against Human Factor XIIa is 0.01 to 0.1 µM; at KLK1, 3 to 10 µM; at FXa it was greater than 40 µM; at Plasma Kallikrein it was greater than 40 µM.

On to `Cc1cc(CNc2cccc3c(N)nccc23)cnc1N1CCn2c(nnc2C(F)(F)F)C1` [Example 1302, N5-((5-methyl-6-(3-(trifluoromethyl)-5,6-dihydro-[1,2,4]triazolo[4,3-a]pyrazin-7(8H)-yl)pyridin-3-yl)methyl)isoquinoline-1,5-diamine], for which the IC50 is 10 to 40 µM against Human Factor XIIa, 1 to 3 µM against KLK1, greater than 40 µM against FXa and 10 to 40 µM on Plasma Kallikrein.

With `Nc1nccc2c(NCc3ccc(N4CCn5c(nnc5C(F)(F)F)C4)cc3)cccc12` [Example 1300, N5-(4-(3-(trifluoromethyl)-5,6-dihydro-[1,2,4]triazolo[4,3-a]pyrazin-7(8H)-yl)benzyl)isoquinoline-1,5-diamine], the IC50 against Human Factor XIIa is 0.1 to 0.3 µM; on KLK1, 3 to 10 µM; on FXa, greater than 40 µM; at Plasma Kallikrein, greater than 40 µM.

Take `Cn1ncc2c1CCN(c1ccc(CNc3cccc4c(N)nccc34)cn1)C2` [Example 1286, N5-((6-(1-methyl-1,4,6,7-tetrahydro-5H-pyrazolo[4,3-c]pyridin-5-yl)pyridin-3-yl)methyl)isoquinoline-1,5-diamine]: the 50% inhibitory concentration (IC50) was 0.3 to 1 µM on Human Factor XIIa, 1 to 3 µM at KLK1 and greater than 40 µM on FXa.
